Here are results for four molecules from article PMC11728000, “Antitumor Activity and Multi-Target Mechanism of Phenolic Schiff Bases Bearing Methanesulfonamide Fragments: Cell Cycle Analysis and a Molecular Modeling Study” (International Journal of Molecular Sciences, 2024).

Values joined by “and” are separate entries in the source; they are usually repeats but may differ in a detail not shown here. Equal entries are not always repeated.

Usually GI50 stands for the concentration that inhibits growth by half.

One test deals with HOP-62. As to the kind of experiment: NCI anticancer screening (SRB), Non-Small Cell Lung Cancer subpanel. The class given is cell-based, human. The following applies: for GI%: 10.0 µM in one dose.
In another test the test system is HOP-92. The description is as above. Type of test: cell-based, human. The following applies: for GI%: 10.0 µM in one dose.
A further test deals with HCC-2998. As to the kind of experiment: NCI anticancer screening (SRB), Colon Cancer subpanel. The class given is cell-based, human. As to conditions: for GI%: 10.0 µM in one dose.
In the next test the test system is SF-295. As to the kind of experiment: NCI anticancer screening (SRB), CNS Cancer subpanel. Type of test: cell-based, human. The following applies: for GI%: 10.0 µM in one dose.
For the next test, the system named is SNB-19. The description is as above. The class given is cell-based, human. As to conditions: for GI%: 10.0 µM in one dose.
The subject of a further test is M14. As to the kind of experiment: NCI anticancer screening (SRB), Melanoma subpanel. As to conditions: for GI%: 10.0 µM in one dose. Type of test: cell-based, human.
For another test, the system named is MDA-MB-435. As to the kind of experiment: NCI anticancer screening (SRB), Melanoma subpanel. Type of test: cell-based, human. As to conditions: for GI%: 10.0 µM in one dose.
The next test relates to SK-MEL-2. Kind of test: NCI anticancer screening (SRB), Melanoma subpanel. As to conditions: for GI%: 10.0 µM in one dose. The class given is cell-based, human.
For a further test, the system named is SK-MEL-28. As to the kind of experiment: NCI anticancer screening (SRB), Melanoma subpanel. The class given is cell-based, human. As to conditions: for GI%: 10.0 µM in one dose.
Another test concerns SK-MEL-5. Kind of test: NCI anticancer screening (SRB), Melanoma subpanel. Type of test: cell-based, human. The following applies: for GI%: 10.0 µM in one dose.
The subject of the next test is NCI/ADR-RES. Kind of test: NCI anticancer screening (SRB), Ovarian Cancer subpanel. As to conditions: for GI%: 10.0 µM in one dose. Type of test: cell-based, human.
The next test relates to ACHN. As to the kind of experiment: NCI anticancer screening (SRB), Renal Cancer subpanel. The class given is cell-based, human. The following applies: for GI%: 10.0 µM in one dose.
A further test concerns CAKI-1. The test is described as above. Type of test: cell-based, human. As to conditions: for GI%: 10.0 µM in one dose.
A further test deals with RXF 393. Described as above. Type of test: cell-based, human. As to conditions: for GI%: 10.0 µM in one dose.
The next test has as its system MCF-7. As to the kind of experiment: NCI anticancer screening (SRB), Breast Cancer subpanel. The class given is cell-based, human. The following applies: for GI%: 10.0 µM in one dose.
Another test has as its system BT-549. The description is as above. The class given is cell-based, human. As to conditions: for GI%: 10.0 µM in one dose.
Another test relates to Bcl-2. Kind of test: Apoptotic markers assay, Bcl-2 expression in MCF-7 cells. As to conditions: MCF-7 cells treated at IC50 concentrations; vs untreated control = 1. Type of test: cell-based, human. As to the method: (§1) We measured the apoptosis promoter Bax levels, the apoptosis inhibitor Bcl−2, and the apoptosis coordination enzymes caspase-8 and caspase-9 [32].
(§2) The apoptotic marker method was carried out using the reported procedure using MCF-7, the cancer cell line (Supplementary Materials). […]
(§3) photomultiplier voltage and for compensation setting adjustment to eliminate spectral overlap between the FL1 and the FL2 signals.
(§4) 6. Cell cycle analysis
(§5) Breast carcinoma (MCF-7) cell was seeded at 2 × 10^5 cells/well density and incubated for 24 h in six-well plates. Foetal bovine serum (10%) was added, and the cells were incubated at 37 °C in an atmosphere of 5% CO2. The medium was replaced with 1% (v/v) DMSO containing 10.0 μM of […]
with 70% ethanol, rinsed with phosphate-buffered saline, and then stained with the DNA fluorochrome propidium iodide (PI) for 15 min at 37 °C. Then, samples were analyzed by flow cytometry using a FACSCalibur (Becton Dickinson). The cell cycle distributions were calculated using CellQuest software (Becton Dickinson).
(§6) 7. Caspase-8 and 9 activation assay
(§7) A breast carcinoma (MCF-7) cell line was obtained from ATCC. […]
allowed cells to grow at 37 °C, stimulated with the compounds to be tested for caspase-8 or caspase-9 and lysed with Cell Extraction Buffer. […]

In the next test the test system is caspase-8. Kind of test: Apoptotic markers assay, caspase-8 level in MCF-7 cells. The class given is cell-based, human. As to conditions: MCF-7 cells treated at IC50 concentrations; vs untreated control = 1. Here is the method: as §1, §2, §6, §7
(§8) allowed cells to grow at 37 °C, stimulated with the compounds to be tested for caspase-8 or caspase-9 and lysed with Cell Extraction Buffer. Standard Diluent Buffer was used to dilute the lysate over the range of the assay and measure human active caspase-8 or caspase-9 content. (cells are Plated in a density of 1.2-1.8 X 10,000 cells/well in a volume of 100 µL complete growth medium + 100 µL of the tested compound per well in a 96-well plate for 24/48 h before the enzyme assay).
(§9) 8. Evaluation of Bax and Bcl-2 expressions m RNA isolation was carried out using an RNeasy extraction kit, up to 1 X 107 cells. They were disrupted in Buffer RLT and homogenized. Ethanol was added to the lysate to promote the selective binding of RNA to the RNeasy membrane. Then, the sample was applied to the RNeasy

A further test deals with caspase-9. As to the kind of experiment: Apoptotic markers assay, caspase-9 level in MCF-7 cells. Type of test: cell-based, human. As to conditions: MCF-7 cells treated at IC50 concentrations; vs untreated control = 1. Here is the method:
as §1, §2, §6, §7, §8, §9

In a further test the test system is NCI-H522. Kind of test: NCI anticancer screening (SRB), Non-Small Cell Lung Cancer subpanel. The class given is cell-based, human.
Another test concerns UACC-257. Kind of test: NCI anticancer screening (SRB), Melanoma subpanel. Type of test: cell-based, human.
Test [1] deals with NSC Lung Cancer subpanel tumor cell lines. As to the kind of experiment: NCI anticancer screening, subpanel summary. The following applies: NSC Lung Cancer, mean over subpanel cell lines. The class given is cell-based.
Test [2] relates to MCF-7 cells. As to the kind of experiment: Annexin V-FITC/PI apoptosis assay. The class given is cell-based, human. The following applies: 24 h.
The test system of test [3] is MCF-7 cells. Kind of test: Cell cycle analysis (PI flow cytometry). As to conditions: 10 μM, 24 h. The class given is cell-based, human. As to the method: Apoptosis is the primary mechanism by which potent chemotherapeutic agents destroy cancer cells. […] Flow cytometry measured cell growth in the G0-G1, S, and G2/M cell cycle phases.
Using the MCF-7 cell line, the cell cycle analysis was carried out like our previous investigation. A FACSCalibur flow cytometer was used to analyze the cells after they had been stained with DNA fluorochrome PI (Supplementary Materials). […]
as §3, §4, §5
with 70% ethanol, rinsed with phosphate-buffered saline, and then stained with the DNA fluorochrome propidium iodide (PI) for 15 min at 37 °C. Then, samples were analyzed by flow cytometry using a FACSCalibur (Becton Dickinson). The cell cycle distributions were calculated using CellQuest software (Becton Dickinson). […]

The test system of another test is HL-60(TB). On the set-up: method as in https://dtp.cancer.gov/dtpstandard/dwindex/index.jsp. The following applies: ref https://dtp.cancer.gov/dtpstandard/dwindex/index.jsp; cited from earlier work.
A further test has as its system RPMI-8226. Also noted: method as in https://dtp.cancer.gov/dtpstandard/dwindex/index.jsp. As to conditions: PRMI-8226; ref https://dtp.cancer.gov/dtpstandard/dwindex/index.jsp; cited from earlier work.
The mark [4] stands for this setting: Homo sapiens, five concentrations.

Turning to `CS(=O)(=O)Nc1ccc(C(=O)NN=Cc2ccccc2O)cc1` [Compound 7], the GI% came to 61% with HOP-62; 44% with HOP-92; 41% in the test on HCC-2998; 35% in the test on SF-295; 32% in the test on SNB-19; 44% in the test with M14. In addition, the GI% in the test with MDA-MB-435 is 24%; with SK-MEL-2, 22%; in the test with SK-MEL-28, 37%; in the test on SK-MEL-5, 33%; with NCI/ADR-RES, 41%; with ACHN it was 46%. Moreover, the GI% with CAKI-1 is 35%; with RXF 393, 21%; in the test on MCF-7 it was 21%; with BT-549 it was 27%. The “Bcl2, Gene Expression (Fold Change)” value in the test with Bcl-2 stood at 0.201 fold change. In the test on caspase-8, the “Casp8, Gene Expression (Fold Change)” value stood at 5.171 fold change. Besides, in the test on caspase-9, the “Casp9, Gene Expression (Fold Change)” value is 2.99 fold change and 2.990 fold change.
Turning to `CCN(CC)c1ccc(C=NNC(=O)c2ccc(NS(C)(=O)=O)cc2)c(O)c1` [Compound 8], the GI% came to 87% with HOP-62; 61% in the test on HOP-92; 88% with NCI-H522 (10.0 µM in one dose); 62% in the test on HCC-2998; 90% with SF-295; 65% in the test on SNB-19. Further, the GI% in the test with M14 was 100%; with MDA-MB-435 it was 71%; in the test with SK-MEL-2, 59%; in the test on SK-MEL-28 it was 77%; in the test on SK-MEL-5, 100%; with UACC-257 (10.0 µM in one dose), above 100%. For the same molecule, the GI% in the test on NCI/ADR-RES is 63%; in the test on ACHN it was 84%; in the test with CAKI-1 it was 81%; with RXF 393, above 100%; with MCF-7, 94%; in the test on BT-549, 88%. Besides, the concentration for 50% growth inhibition (GI50) stood at 189 nM with HOP-62 (setting [4]); 443 nM in the test on HOP-92 (setting [4]); 360 nM in the test with NCI-H522 (setting [4]); 356 nM in the test on HCC-2998 (setting [4]); 517 nM in the test on SF-295 (setting [4]); 831 nM with SNB-19 (setting [4]). Moreover, the GI50 in the test on M14 (setting [4]) turned out to be 351 nM; with MDA-MB-435 (setting [4]) it was 558 nM; in the test on SK-MEL-2 (setting [4]), 749 nM; in the test with SK-MEL-28 (setting [4]), 381 nM; in the test with SK-MEL-5 (setting [4]), 1130 nM; with UACC-257 (setting [4]), 463 nM. The 50% growth inhibitory concentration (GI50) turned out to be 2580 nM in the test on NCI/ADR-RES (setting [4]); 513 nM in the test on ACHN (setting [4]); 464 nM in the test on CAKI-1 (setting [4]); 1040 nM with RXF 393 (setting [4]); 416 nM with MCF-7 (Homo sapiens, MCF7, five concentrations); 569 nM in the test on BT-549 (setting [4]). In test [1] (Homo sapiens), this molecule returned a GI50 of 622 nM. For the same molecule, the CC50 in test [1] (Homo sapiens, read-out: LC50, subpanel average) was found to be 94900 nM. For the same molecule, in test [1], the “TGI, subpanel average” value was 22080 nM. Besides, in the test on MCF-7 cells [2], the Necrosis was found to be 6.08%. In addition, the “Total Apoptosis” value with MCF-7 cells [2] (annexin V-FITC/PI) is recorded as 38.16%. The “Early Apoptosis” value with MCF-7 cells [2] (lower-right quadrant) is reported as 22.49%. For the same molecule, in the test with MCF-7 cells [2] (upper-right quadrant), the “Late Apoptosis” value is 9.59%. Besides, the “%G0–G1” value with MCF-7 cells [3] was 51.94%. In addition, the “%G2-M” value in the test on MCF-7 cells [3] was determined as 14.64%. Moreover, the “%S” value with MCF-7 cells [3] is 33.42%. In addition, in the test on MCF-7 cells [3], the “Comment (cell cycle arrest phase)” value is listed as “Growth arrest@ S”. The “Bcl2, Gene Expression (Fold Change)” value in the test with Bcl-2 is 0.232 fold change. Moreover, the “Casp8, Gene Expression (Fold Change)” value in the test with caspase-8 was 6.456 fold change. The “Casp9, Gene Expression (Fold Change)” value in the test on caspase-9 was found to be 3.776 fold change.
Turning to `Cc1ccc(-c2cc(C(F)(F)F)nn2-c2ccc(S(N)(=O)=O)cc2)cc1` [Celecoxib, celecoxib], the GI50 in the test on HL-60(TB) is 15800 nM; with RPMI-8226, 3980 nM.
As to `C#Cc1cccc(Nc2ncnc3cc(OCCOC)c(OCCOC)cc23)c1` [Erlotinib, erlotinib], the GI50 in the test on HL-60(TB) and in the test with RPMI-8226 was 25100 nM throughout.
